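Cells were grown in 96-well plates and exposed to each compound for 48 hours at five concentrations; endpoints were interpolated linearly between bracketing concentrations, or set to the highest concentration if not reached. The concentration for 50% growth inhibition is given as GI50. TGI: concentration producing complete growth inhibition.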
Columns and labels:
Test in all cases: growth of human tumour cells (NCI), 48 h
[1] = test system: A498 renal
[2] = test system: HT29 colon
[3] = test system: RXF 393 renal
[4] = test system: MDA-MB-435
[5] = test system: SR leukemia
[6] = test system: OVCAR-8 ovarian
[7] = test system: DU-145 prostate
[8] = test system: TK-10 renal
[9] = test system: K-562 leukemia
[10] = test system: MCF7 breast

| Compound | GI50 [1] | TGI [1] | GI50 [2] | TGI [2] | GI50 [3] | TGI [3] | GI50 [4] | TGI [4] | GI50 [5] | TGI [5] | GI50 [6] | TGI [6] | GI50 [7] | TGI [7] | GI50 [8] | TGI [8] | GI50 [9] | TGI [9] | GI50 [10] | TGI [10] |
| --- | --- | --- | --- | --- | --- | --- | --- | --- | --- | --- | --- | --- | --- | --- | --- | --- | --- | --- | --- | --- |
| COc1ncc(Nc2ncc([C@@H](C)N3CCN(S(C)(=O)=O)CC3)cc2-c2nc(C)nc(N)n2)cc1F | < 0.01 µM | 0.0309 µM | 0.0355 µM | > 100 µM | 0.0158 µM | 0.453 µM | 1.15 µM | > 100 µM | 4.83 µM | > 61.5 µM | 2.2 µM | > 100 µM | 0.183 µM | > 100 µM | 0.0222 µM | 1.22 µM | 14.3 µM | > 100 µM | 0.0147 µM | > 100 µM |
| Nc1nc([Se])c2ncn(C3OC(CO)C(O)C3O)c2n1 (centres undefined) | 17 µM | > 100 µM | 4.29 µM | 82.9 µM | > 100 µM | > 100 µM | 15.1 µM | > 100 µM | 2.88 µM | > 100 µM | 3.86 µM | > 100 µM | 3.31 µM | > 100 µM | 7.55 µM | > 100 µM | 5.59 µM | > 100 µM | 4.09 µM | > 100 µM |
| C[C@]12CC[C@H]3[C@@H](CC=C4C[C@@H](N5CCCC5)CC[C@@]43C)[C@@H]1C/C(=C\c1cccc(OCCN3CCOCC3)c1)[C@@H]2O | 3.52 µM | 15 µM | 0.532 µM | 15.7 µM | 1.76 µM | 3.82 µM | 3.64 µM | > 100 µM | 3.03 µM | > 100 µM | 3.74 µM | 21.7 µM | 1.85 µM | > 100 µM | 4.15 µM | 46.7 µM | 2.34 µM | > 100 µM | 19.7 µM | 98.1 µM |
| COc1cc(Nc2ncc(-c3ccccc3)o2)cc(OC)c1 | 5.57 µM | > 25 µM | > 25 µM | > 25 µM | 8.4 µM | > 25 µM | > 25 µM | > 25 µM | > 17.7 µM | > 25 µM | > 25 µM | > 25 µM | > 25 µM | > 25 µM | > 25 µM | > 25 µM | > 22.5 µM | > 25 µM | > 25 µM | > 25 µM |
| Cc1cccc2nc3ccccc3c(Nc3ccc(NS(C)(=O)=O)cc3)c12 | 3.81 µM | 19.4 µM | 5.18 µM | 24.8 µM | 10.8 µM | 23.6 µM | 13.5 µM | 34.2 µM | 1.51 µM | 6.7 µM | 6.23 µM | 30.9 µM | 3.76 µM | 22.6 µM | 6.58 µM | 21 µM | 5.62 µM | 26.8 µM | 3.62 µM | 21.7 µM |
| O=C(Nc1ccccc1)Nc1ccc2cc3ccc(NC(=O)Nc4ccccc4)cc3nc2c1 | 2.74 µM | 8.87 µM | 1.89 µM | 3.73 µM | 1.49 µM | 3.61 µM | 1.68 µM | 3.15 µM | 0.287 µM | 0.734 µM | 1.15 µM | 2.78 µM | 2.41 µM | 7.49 µM | 3.98 µM | 9.12 µM | 0.363 µM | 1.1 µM | 1.08 µM | 3.14 µM |
| Nc1ccc(C(=O)N/C(=C\c2cccc([N+](=O)[O-])c2)c2nc3[nH]c(=S)[nH]c(=O)c3[nH]2)cc1 | – | > 100 µM | – | > 100 µM | – | 55.9 µM | – | > 100 µM | – | > 100 µM | – | > 90.3 µM | – | > 100 µM | – | > 100 µM | – | > 100 µM | – | > 100 µM |
| Cc1ccccc1NC(=O)c1sc2nc(C)c(C(=O)/C=C/c3ccccc3)cc2c1N | 1.23 µM | 4.27 µM | 1.18 µM | 3.21 µM | 0.821 µM | 1.6 µM | 0.895 µM | 2.33 µM | 1.13 µM | > 50 µM | 1.6 µM | > 50 µM | 1.34 µM | 4.28 µM | 1.55 µM | 6.04 µM | 0.731 µM | > 50 µM | 1.5 µM | 8.69 µM |
| CNC(=O)c1c(NC(=O)c2ccc(C(C)(C)C)cc2)sc2c1CCC(=O)C2 | 0.647 µM | 3.62 µM | 0.263 µM | 1.56 µM | 0.244 µM | 1.01 µM | 0.335 µM | 1.42 µM | 0.107 µM | – | 0.292 µM | 3.19 µM | 1.44 µM | 3.68 µM | 0.374 µM | 1.97 µM | 0.0659 µM | > 100 µM | 0.264 µM | 1.33 µM |
| COc1ccc2c(c1)nc(C(=O)c1ccco1)c(C(F)(F)F)[n+]2[O-] | > 100 µM | > 100 µM | > 100 µM | > 100 µM | 47.5 µM | > 100 µM | > 100 µM | > 100 µM | > 100 µM | > 100 µM | > 100 µM | > 100 µM | > 100 µM | > 100 µM | 86.8 µM | > 100 µM | > 100 µM | > 100 µM | > 100 µM | > 100 µM |
